Experimental data taken from ChEMBL document CHEMBL1201862, “PubChem BioAssay data set” (2004).
Calls of active or inactive are those of the source.

How the values were obtained:
[1] = non-specific 3'UTR reporter inhibition in Clone20-Shn3RL – cell-based, Renilla luciferase, cherry-picked, counter-screen for Shn3 inhibitor project, dose response (AID 624133); assay type: functional
[2] = system: INS1; assay: INS-1E survival protection against cytokine death – cell-based, luminescence, retest, dose response (AID 449756); assay type: functional; conditions: Rattus norvegicus;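 further: cell death triggered by IL-1 beta plus TNF-alpha plus IFN-gamma mixture; protective hits raise ATP signal compared with cytokine alone wells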
[3] = loss of viability in HepG2 cells – cell-based, CellTiter-Glo, cherry-picked, cytotoxicity control for Shn3 inhibitor project, dose response (AID 624134); assay type: functional
[4] = reduction of Shn3 3'UTR-driven luciferase in osteoblasts – cell-based, Clone20 osteoblasts, firefly luciferase, cherry-picked, dose response (AID 624132); assay type: functional;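 further: firefly luciferase luminescence from reporter carrying the Shn3 3'UTR in osteoblasts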
[5] = HEK-293T viability loss after treatment – luminescence, T-cell screen hits, cytotoxicity control for TCR NF-kB inhibitor project, dose response (AID 489026); assay type: functional, cell-based;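 further: cells exposed to compound about 14 hours before the viability readout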
[6] = target: T1, Corticotropin-releasing factor receptor 2/Corticotropin-releasing factor-binding protein (Homo sapiens, UniProt P24387+Q13324); assay: activators of CRF receptor 2 with binding protein – uHTS hits, confirmation (AID 602473); assay type: functional; conditions: read-out: EC50_Mean
T1 sequence (Q13324 whole entry): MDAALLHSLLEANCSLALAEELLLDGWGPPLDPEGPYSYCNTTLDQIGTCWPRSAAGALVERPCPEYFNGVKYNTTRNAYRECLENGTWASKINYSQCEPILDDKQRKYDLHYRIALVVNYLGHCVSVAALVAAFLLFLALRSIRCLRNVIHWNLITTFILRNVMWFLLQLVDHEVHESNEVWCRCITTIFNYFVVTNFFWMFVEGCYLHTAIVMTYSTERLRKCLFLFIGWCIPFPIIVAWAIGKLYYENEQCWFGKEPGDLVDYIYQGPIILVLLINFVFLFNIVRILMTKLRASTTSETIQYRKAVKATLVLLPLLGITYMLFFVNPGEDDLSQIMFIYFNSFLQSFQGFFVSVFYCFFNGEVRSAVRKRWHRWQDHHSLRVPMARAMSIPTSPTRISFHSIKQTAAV
T1 sequence (P24387 whole entry): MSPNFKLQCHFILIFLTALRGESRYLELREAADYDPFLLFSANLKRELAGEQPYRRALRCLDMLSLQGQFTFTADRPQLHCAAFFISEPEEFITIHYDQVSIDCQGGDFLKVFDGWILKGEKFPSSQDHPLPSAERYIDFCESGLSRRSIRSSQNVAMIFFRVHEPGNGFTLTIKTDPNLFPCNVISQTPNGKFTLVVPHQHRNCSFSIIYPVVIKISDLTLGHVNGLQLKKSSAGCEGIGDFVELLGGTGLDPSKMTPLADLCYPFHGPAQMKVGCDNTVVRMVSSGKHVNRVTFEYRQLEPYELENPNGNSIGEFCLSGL

[7] = target: T1, Corticotropin-releasing factor receptor 2/Corticotropin-releasing factor-binding protein; assay: Dose Response confirmation of uHTS hits for small molecule antagonists of the CRF-binding protein and CRF-R2 receptor complex.; assay type: functional; conditions: read-out: IC50_Mean
[8] = target: T2, Rac GTPase-activating protein 1 (Homo sapiens, UniProt Q9H0H5); assay: blockers of MgcRacGAP-driven Rac1 GTP hydrolysis – biochemical, ADP Hunter fluorescence, primary and confirmatory, confirmation (AID 624330); assay type: functional
T2 sequence (Q9H0H5 whole entry): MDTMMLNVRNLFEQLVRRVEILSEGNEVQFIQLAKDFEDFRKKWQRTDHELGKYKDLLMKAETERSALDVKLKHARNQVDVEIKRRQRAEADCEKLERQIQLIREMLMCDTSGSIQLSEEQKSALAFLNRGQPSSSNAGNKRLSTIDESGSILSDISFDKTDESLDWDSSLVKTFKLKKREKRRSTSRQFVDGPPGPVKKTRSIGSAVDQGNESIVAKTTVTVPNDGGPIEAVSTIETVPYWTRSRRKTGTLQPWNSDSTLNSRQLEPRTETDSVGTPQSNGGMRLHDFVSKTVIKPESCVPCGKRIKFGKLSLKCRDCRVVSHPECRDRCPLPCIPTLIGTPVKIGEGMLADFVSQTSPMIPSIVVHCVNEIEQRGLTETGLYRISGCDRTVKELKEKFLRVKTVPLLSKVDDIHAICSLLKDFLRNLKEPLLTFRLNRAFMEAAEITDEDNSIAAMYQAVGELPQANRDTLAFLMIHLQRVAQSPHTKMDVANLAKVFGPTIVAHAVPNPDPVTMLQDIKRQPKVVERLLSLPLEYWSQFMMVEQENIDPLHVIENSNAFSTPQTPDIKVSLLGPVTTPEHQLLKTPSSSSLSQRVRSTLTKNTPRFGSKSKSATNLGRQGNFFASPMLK

[9] = target: T3, Fatty acid synthase (Homo sapiens, UniProt P49327); assay: inhibition of human FAS-TE enzyme activity – biochemical, endpoint fluorescence intensity, uHTS hits, dose response (AID 624327); assay type: functional;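 further: fluorescence from hydrolysis of an O-methyl fluorescein acyl ester substrate by the enzyme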
T3 sequence (P49327 whole entry): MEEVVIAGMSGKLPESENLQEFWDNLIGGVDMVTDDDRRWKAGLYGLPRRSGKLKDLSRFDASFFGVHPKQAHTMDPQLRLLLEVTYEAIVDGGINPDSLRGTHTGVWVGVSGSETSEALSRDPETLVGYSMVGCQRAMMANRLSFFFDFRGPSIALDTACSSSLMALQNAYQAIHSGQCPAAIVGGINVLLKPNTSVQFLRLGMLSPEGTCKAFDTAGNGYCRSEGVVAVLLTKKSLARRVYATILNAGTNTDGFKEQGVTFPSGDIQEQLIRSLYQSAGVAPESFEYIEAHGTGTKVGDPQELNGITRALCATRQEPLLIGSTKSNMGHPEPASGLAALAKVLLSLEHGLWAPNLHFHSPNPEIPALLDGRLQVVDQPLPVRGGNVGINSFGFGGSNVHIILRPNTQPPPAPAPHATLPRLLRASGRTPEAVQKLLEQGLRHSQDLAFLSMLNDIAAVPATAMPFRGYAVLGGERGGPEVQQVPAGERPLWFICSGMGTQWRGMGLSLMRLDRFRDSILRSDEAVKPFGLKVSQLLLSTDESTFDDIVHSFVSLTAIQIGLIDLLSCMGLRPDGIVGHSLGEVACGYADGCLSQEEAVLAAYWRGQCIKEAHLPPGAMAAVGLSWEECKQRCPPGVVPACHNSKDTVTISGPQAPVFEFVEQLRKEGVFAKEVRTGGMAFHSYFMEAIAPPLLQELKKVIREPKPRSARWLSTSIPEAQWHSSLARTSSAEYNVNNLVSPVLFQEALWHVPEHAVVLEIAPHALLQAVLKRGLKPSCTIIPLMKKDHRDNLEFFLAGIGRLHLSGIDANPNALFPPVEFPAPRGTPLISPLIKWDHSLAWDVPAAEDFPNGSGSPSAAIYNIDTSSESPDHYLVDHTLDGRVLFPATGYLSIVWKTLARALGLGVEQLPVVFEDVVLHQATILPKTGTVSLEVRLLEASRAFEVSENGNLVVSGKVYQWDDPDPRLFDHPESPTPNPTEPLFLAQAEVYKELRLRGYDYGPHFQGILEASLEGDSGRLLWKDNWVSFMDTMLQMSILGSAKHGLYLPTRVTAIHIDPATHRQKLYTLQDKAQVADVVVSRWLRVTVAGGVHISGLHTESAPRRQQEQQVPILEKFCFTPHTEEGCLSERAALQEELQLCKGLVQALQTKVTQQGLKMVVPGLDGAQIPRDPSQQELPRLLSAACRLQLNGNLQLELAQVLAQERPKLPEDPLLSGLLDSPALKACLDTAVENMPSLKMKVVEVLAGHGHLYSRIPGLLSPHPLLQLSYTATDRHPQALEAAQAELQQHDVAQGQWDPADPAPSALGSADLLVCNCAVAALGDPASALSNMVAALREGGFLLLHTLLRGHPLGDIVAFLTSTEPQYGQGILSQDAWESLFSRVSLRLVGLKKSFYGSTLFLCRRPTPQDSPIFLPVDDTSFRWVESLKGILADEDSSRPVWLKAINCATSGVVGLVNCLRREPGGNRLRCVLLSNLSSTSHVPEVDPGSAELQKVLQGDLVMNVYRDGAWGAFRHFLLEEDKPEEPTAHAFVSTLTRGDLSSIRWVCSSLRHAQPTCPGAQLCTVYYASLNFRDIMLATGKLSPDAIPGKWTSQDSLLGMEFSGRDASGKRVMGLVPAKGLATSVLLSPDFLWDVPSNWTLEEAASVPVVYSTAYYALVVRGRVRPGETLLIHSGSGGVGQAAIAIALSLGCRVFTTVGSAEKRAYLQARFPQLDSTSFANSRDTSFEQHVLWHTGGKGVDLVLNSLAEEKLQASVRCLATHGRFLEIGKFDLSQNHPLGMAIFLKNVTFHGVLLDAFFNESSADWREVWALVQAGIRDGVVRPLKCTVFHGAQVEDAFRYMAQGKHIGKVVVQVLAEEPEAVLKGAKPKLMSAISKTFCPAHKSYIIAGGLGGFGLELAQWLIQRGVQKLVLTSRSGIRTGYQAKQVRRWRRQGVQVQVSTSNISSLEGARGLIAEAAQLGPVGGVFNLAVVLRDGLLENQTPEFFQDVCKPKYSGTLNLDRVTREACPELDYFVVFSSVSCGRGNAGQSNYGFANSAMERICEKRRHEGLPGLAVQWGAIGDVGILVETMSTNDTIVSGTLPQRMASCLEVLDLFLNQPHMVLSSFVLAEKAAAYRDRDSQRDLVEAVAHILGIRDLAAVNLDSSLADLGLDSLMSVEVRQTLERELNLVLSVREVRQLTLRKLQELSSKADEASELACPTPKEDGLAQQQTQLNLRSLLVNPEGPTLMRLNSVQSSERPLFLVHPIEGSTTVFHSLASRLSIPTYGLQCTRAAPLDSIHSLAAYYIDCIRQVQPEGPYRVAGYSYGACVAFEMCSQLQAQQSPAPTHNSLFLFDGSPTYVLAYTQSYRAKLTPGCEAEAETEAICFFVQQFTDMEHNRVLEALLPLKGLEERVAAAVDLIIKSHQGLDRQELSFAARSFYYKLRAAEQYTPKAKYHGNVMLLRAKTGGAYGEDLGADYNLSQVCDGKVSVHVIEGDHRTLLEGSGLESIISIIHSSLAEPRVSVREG

[10] = target: T3, Fatty acid synthase; assay: inhibition of human FAS-TE enzyme activity – biochemical, kinetic fluorescence intensity, dose response (AID 624326); assay type: functional;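 further: rate of fluorescence rise from hydrolysis of a fluorogenic O-methyl fluorescein ester substrate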
[11] = system: BJ; assay: cells; assay type: functional, cell-based; conditions: Homo sapiens
[12] = system: BJ; assay: BJ-TERT fibroblast viability loss – cell-based, RAS-independent, luminescence, dose response (AID 1933); assay type: functional; conditions: Homo sapiens
[13] = system: BJ; assay: BJ-TERT-LT-ST fibroblast viability loss – cell-based, RAS-independent, luminescence, dose response (AID 1935); assay type: functional; conditions: Homo sapiens;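 further: BJ fibroblasts immortalized with TERT plus LT and ST oncogenes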
[14] = DRD fibroblast viability loss – cell-based, non-viral oncogenic, luminescence, dose response (AID 1934); assay type: functional; conditions: Homo sapiens
[15] = NIH-3T3 fibroblast cytotoxicity, dose response, cytotoxicity control, cell-based, fluorescence, Alamar Blue, secondary assay (AID 2327); assay type: functional;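 further: NIH-3T3 mouse fibroblasts cultured with fluconazole at 8 µg/mL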
[16] = cells; assay type: functional, cell-based
[17] = cells; assay type: functional, cell-based; remark: listed apart in the source
[18] = luciferase reporter signal suppression in cells – H4 neuroglioma cells, luminescence, dose response (AID 1990); assay type: functional, cell-based
[19] = alpha-synuclein stem-loop luciferase translation blockers – H4 neuroglioma cells, luminescence, confirmation (AID 1988); assay type: functional, cell-based
[20] = fluconazole-exposed Candida albicans growth modulators – fluorescence, retest, confirmation (AID 2467); assay type: functional, cell-based
[21] = Luminescence Cell-Based Dose Response HTS to Identify Inhibitors of 5'UTR Stem-Loop Driven Prion Protein mRNA Translation in H4 Neuroglioblastoma Cells. [Related pubchem assays: 1827 (Project Summary), 1813 (Primary HTS)]; assay type: functional
[22] = target: Cytochrome P450 3A4 (Homo sapiens, UniProt P08684);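 further: CYP3A4 tested as one member of a cytochrome P450 panel screen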
Sequence of Cytochrome P450 3A4 (P08684 whole entry): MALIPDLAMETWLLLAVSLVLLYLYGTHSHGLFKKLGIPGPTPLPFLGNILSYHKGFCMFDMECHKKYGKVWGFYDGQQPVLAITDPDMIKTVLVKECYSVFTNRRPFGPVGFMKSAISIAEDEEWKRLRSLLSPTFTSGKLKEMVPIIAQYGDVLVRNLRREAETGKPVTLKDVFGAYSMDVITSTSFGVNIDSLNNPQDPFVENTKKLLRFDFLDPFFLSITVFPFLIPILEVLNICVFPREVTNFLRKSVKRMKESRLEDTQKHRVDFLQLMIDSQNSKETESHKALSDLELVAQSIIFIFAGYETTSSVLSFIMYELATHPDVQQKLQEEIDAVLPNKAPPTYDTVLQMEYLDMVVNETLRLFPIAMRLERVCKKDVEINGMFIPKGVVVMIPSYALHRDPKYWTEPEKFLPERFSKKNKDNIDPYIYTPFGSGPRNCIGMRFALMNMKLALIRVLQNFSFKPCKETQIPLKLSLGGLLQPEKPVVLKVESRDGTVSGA

[23] = target: Cytochrome P450 2D6 (Homo sapiens, UniProt P10635);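 further: CYP2D6 member of a cytochrome P450 panel assay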
Sequence of Cytochrome P450 2D6 (P10635 whole entry): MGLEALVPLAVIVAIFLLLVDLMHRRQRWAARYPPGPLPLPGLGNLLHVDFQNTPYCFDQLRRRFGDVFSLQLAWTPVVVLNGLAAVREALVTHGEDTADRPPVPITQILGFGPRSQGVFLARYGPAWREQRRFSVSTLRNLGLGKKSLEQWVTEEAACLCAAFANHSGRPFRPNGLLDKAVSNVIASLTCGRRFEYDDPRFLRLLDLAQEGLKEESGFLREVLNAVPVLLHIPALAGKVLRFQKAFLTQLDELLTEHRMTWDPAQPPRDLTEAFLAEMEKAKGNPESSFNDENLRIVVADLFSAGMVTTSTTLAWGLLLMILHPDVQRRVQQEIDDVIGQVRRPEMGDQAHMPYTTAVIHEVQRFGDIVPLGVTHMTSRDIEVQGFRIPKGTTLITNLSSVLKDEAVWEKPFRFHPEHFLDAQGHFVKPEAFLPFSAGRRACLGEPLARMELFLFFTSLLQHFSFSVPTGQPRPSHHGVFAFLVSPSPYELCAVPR

[24] = target: T4, Cytochrome P450 1A2 (Homo sapiens, UniProt P05177);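 further: PubChem cytochrome P450 panel assay, CYP1A2 panel member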
T4 sequence (P05177 whole entry): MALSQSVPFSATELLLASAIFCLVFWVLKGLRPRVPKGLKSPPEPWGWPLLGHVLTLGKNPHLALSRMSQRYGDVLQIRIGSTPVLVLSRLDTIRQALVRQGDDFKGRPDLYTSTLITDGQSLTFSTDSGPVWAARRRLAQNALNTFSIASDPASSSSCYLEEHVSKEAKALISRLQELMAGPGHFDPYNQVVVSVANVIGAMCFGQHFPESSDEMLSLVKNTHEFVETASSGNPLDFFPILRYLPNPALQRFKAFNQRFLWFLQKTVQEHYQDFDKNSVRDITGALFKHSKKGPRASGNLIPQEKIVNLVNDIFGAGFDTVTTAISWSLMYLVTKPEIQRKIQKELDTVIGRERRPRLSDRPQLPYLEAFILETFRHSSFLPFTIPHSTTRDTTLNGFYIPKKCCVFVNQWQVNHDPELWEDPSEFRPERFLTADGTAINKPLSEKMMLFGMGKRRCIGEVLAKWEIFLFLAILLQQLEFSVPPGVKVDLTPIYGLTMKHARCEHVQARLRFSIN

[25] = Luminescence Cell-Based Dose Retest to Confirm Inhibitors of Cancer Stem Cells. [Related pubchem assays (depositor defined):AID2717, AID2721]; assay type: functional; conditions: Homo sapiens
[26] = system: Streptococcus sp. 'group A'; assay: Streptococcus pyogenes SK(-)GAS viability under kanamycin – luminescence, BacTiterGlo, confirmation, counter-screen for streptokinase expression inhibitor project, dose response (AID 1900); assay type: functional, organism-based
[27] = target: T5, Heat shock factor protein 1 (Mus musculus, UniProt P38532); assay: enhancement of HSF1-driven luciferase signal – cell-based, NIH3T3, luminescence, dose retest, confirmation (AID 435004); assay type: functional;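 further: stress induced by proteasome inhibitor MG132 added 30 min after compound; luciferase reporter driven by HSF1 response element in NIH3T3 cells; actives raise luminescence as potentiators of the MG132 stress response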
T5 sequence (P38532 whole entry): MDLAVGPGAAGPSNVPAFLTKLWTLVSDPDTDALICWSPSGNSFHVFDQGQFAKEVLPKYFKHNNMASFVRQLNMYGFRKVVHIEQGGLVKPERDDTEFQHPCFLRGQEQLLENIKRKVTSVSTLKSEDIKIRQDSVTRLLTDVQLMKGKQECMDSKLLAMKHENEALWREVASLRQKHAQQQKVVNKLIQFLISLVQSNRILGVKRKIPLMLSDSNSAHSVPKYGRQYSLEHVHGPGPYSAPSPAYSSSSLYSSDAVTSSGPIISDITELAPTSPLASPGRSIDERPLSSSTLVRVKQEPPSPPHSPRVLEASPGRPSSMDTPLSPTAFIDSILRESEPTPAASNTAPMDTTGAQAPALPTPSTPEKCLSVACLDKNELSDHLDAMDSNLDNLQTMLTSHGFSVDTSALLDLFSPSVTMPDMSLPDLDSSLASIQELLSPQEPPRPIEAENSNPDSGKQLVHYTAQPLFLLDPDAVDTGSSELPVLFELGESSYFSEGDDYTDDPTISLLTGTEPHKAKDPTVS

[28] = system: Streptococcus; assay: GAS UMAA2166 growth inhibition – luminescence, BacTiterGlo, counter-screen for streptokinase expression inhibitor project, dose response (AID 1915); assay type: functional, organism-based;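 further: potency for reduction of bacterial viability or growth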

CCCCC1(Cc2ccc([N+](=O)[O-])cc2)C(=O)N(c2ccccc2)N(c2ccccc2)C1=O
AC50 [1]: 3.42 µM (active)
AC50 [2]: 3.67 µM (active)
AC50 [3]: 66.8 µM (active)
AC50 [4]: 10.2 µM (active)

CCN(CC)S(=O)(=O)c1ccc(NC(=O)c2ccc(CN3CCOCC3)cc2)cc1
IC50 [5]: > 80 µM (inactive)

O=C(NCCOc1ccccc1)c1cc([N+](=O)[O-])ccc1N1CCOCC1
IC50 [5]: > 80 µM (inactive)

Cc1ccc2c(c1)C(C)CC(C)(C)N2C(=O)CN1CCN(C)CC1 (centres undefined)
EC50 [6]: > 53 µM (inactive)
IC50 [7]: > 47.1 µM (inactive)
IC50 [8]: 73.3 µM (active)

CC(C)(C)c1cc(Br)c(O)c(N=Nc2ccc(S(=O)(=O)N3CCOCC3)cc2)c1
IC50 [9]: 3.8 µM (active)
IC50 [10]: 2.66 µM (active)

COc1ccc(C(=O)N/C(=C\c2cn(S(=O)(=O)N(C)C)c3ccccc23)C(=O)N2CCCC2)cc1
IC50 [9]: 1.47 µM (active)
IC50 [10]: 4.3 µM (active)

CCOC(=O)C(C)Oc1cccc2c(=O)n(CC(=O)NCc3ccccc3)ccc12 (centres undefined)
EC50 [11]: 7.35 µM (active)
IC50 [5]: > 80 µM (inactive)
EC50 [12]: 0.772 µM (active)
EC50 [13]: 0.785 µM (active)
EC50 [14]: 0.645 µM (active)

C/C(=N\NC(=O)c1cc(-c2cccnc2)nc2ccccc12)c1ccc(O)cc1O
EC50 [15]: 4.94 µM (active)
AC50 [2]: 0.661 µM (active)
EC50 [16]: 10.9 µM (active)
EC50 [17]: > 350 µM (not active)
EC50 [18]: 5.99 µM (active)
EC50 [19]: 8.88 µM (active)
EC50 [20]: > 38 µM (not active)
EC50 [21]: 9.7 µM (active)

CC(C)c1ccc(/C=N/NC(=O)CN(c2cccc(Cl)c2Cl)S(C)(=O)=O)cc1
AC50 [22]: 28.2 µM (inconclusive)
IC50 [9]: 10.4 µM (active)
AC50 [23]: 28.2 µM (inconclusive)
IC50 [10]: 7.36 µM (active)
AC50 [24]: 25.1 µM (inconclusive)

CCCCSc1nc(C)cc(SCC(=O)N/N=C/c2cccc(OC)c2O)n1
AC50 [25]: 7.03 µM (active)
EC50 [16]: 15 µM (active)
EC50 [26]: 2.31 µM (active)
EC50 [27]: > 260 µM (inactive)
EC50 [17]: > 350 µM (not active)
EC50 [18]: 11.6 µM (active)
EC50 [19]: 10.2 µM (active)
EC50 [28]: 2.61 µM (active)
EC50 [21]: 9.62 µM (active)

COc1cc(O)c2c(c1)COC2=O
EC50 [6]: > 53 µM (inactive)
IC50 [7]: > 47.1 µM (inactive)

CCCCCN(CCCCC)C(=O)C(CCC(=O)O)NC(=O)c1ccc(Cl)c(Cl)c1 (centres undefined) [LORGLUMIDE SODIUM]
IC50 [9]: 5.09 µM (active)
IC50 [10]: 5.31 µM (active)
